Tested on: AMPK
Experiment: AMPK phosphorylation (Thr172) western blot in C2C12 myocytes
Type: cell-based, mouse
Procedure: C2C12 skeletal myoblast cell line was purchased from the Food Industry Research and Development Institute (Hsinchu, Taiwan). The C2C12 cell line was a cell line obtained from culturing the leg skeletal muscle of adult C3H mice in a cell incubator under […], 5% CO2, and 37° C. The cells were cultured in a DMEM medium (Gibco/Invitrogen, Carlsbad, Calif.) containing 4.5 mg/mL glucose, 10% fetal bovine serum (FBS; Gibco/Invitrogen, Carlsbad, Calif.), and an antibiotic solution (with final concentrations of penicillin=100 IU/mL and streptomycin=100 μg/mL). When the C2C12 myoblast cells have proliferated to cover seven-tenths of the area in the petri dish, the fetal bovine serum was replaced by 2% horse serum (Gibco/Invitrogen, Carlsbad, Calif.) so as to induce the C2C12 myoblast cells to become the multi-nuclei myocytes. The C2C12 myoblast cells differentiated into myocytes in 4 days, and the culture medium of the cells was replaced with no-serum DMEM 24 hours before the experiments so as to reduce metabolism of the cells. The C2C12 myocytes were treated respectively with 1 μM, 3 μM and 10 μM N-allylsecoboldine for 5 and 15 minutes. Then the C2C12 myocytes were rinsed with PBS buffer solution, and RIPA buffer solution containing protease inhibitors (20 mM Tris-HCl (pH 7.4), 100 mM NaCl, 1 mM EDTA, 1 mM EGTA, 0.1% SDS, 0.5% sodium deoxycholate, 1% NP-40, and 100× protease inhibitor cocktail) was added into the cells. The cells were collected and centrifuged on ice. Then, the concentrations of the supernatant samples were adjusted to be the same. The supernatant samples were put through vertical electrophoresis isolation with 8% SDS-PAGE, and the isolated proteins were transferred onto a PVDF blotting membrane. After blotting was completed, the PVDF blotting membrane was removed and blocked for 1 hour under room temperature with a blocking buffer of TBST (Tris-buffered saline with Tween-20) with 5% non-fat milk. Then, the PVDF blotting membrane was placed into a 5% BSA and TBST solution containing the primary monoclonal antibodies Phospho-AMPKα (Thr172) (Cell Signaling) (1:1000) and AMPKα (Thr172) (Cell Signaling) (1:1000), respectively, and the primary immunoblotting reaction was performed under 4° C. Then, the PVDF blotting membrane was rinsed 3 times with TBST, and a TBST solution containing the secondary antibody goat anti-rabbit IgG (Perkin Elmer) (1:10000) was added to perform the secondary reaction for one hour under room temperature. Finally, the membrane was rinsed 3 times with TBST before ECL (enhanced chemiluminescence) was added to present color.

C=CCN(C)CCc1cc(O)c(OC)c2c1ccc1cc(O)c(OC)cc12 [N-allylsecoboldine]
AMPK phosphorylation, times of that in the control cells (3 μM, 5 minutes): 2.34 times | AMPK phosphorylation, times of that in the control cells (3 μM, 15 minutes): 1.38 times | AMPK phosphorylation, times of that in the control cells (10 μM, 5 minutes): 2.51 times | AMPK phosphorylation, times of that in the control cells (10 μM, 15 minutes): 2.79 times | effect in AMPK activation (in words) (C2C12 cells, overall conclusion): excellent effect in AMPK activation

Reference: US20150342908A1, “SECOAPORPHINE ALKALOID DERIVATIVE FOR ACTIVATING AMP-DEPENDENT PROTEIN KINASE” (ZIH YUAN TANG Biotechnology Co., Ltd, priority 2014, published 2015)
